Measured values taken from patent US20220064141A1, “BENZOPYRIDONE HETEROCYCLIC COMPOUND AND USE THEREOF” (BrightGene Bio-Medical Technology Co., Ltd., priority 2019, published 2022).

Tested on: NCI-H358 human non-small cell lung cancer cell with KRAS G12C mutation
Assay: Cell Titer-Glo cell viability, NCI-H358 cells (72 h)
Format: cell-based
Details: Homo sapiens, NCI-H358, 72 h, numeric values
Outline: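 NCI-H358 (KRAS G12C) cells in DMEM with 10% FBS, seeded and left overnight at 37 °C, then treated 72 h with compound at 30 μM to 0.01 nM final. Viability from ATP content with Cell Titer-Glo after 1-4 h incubation at 37 °C; […].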

For C=CC(=O)N1CCN(c2c(C#N)c(=O)n(-c3ccccc3C(C)C)c3cc(-c4c(C)ccc5[nH]ncc45)c(Cl)cc23)[C@@H](C)C1 (single isomer, unassigned) [Compound I-2-2], the IC50 was 50 nM.
